Reference: patent US20140205681A1, “HYDROGEN-BOND SURROGATE PEPTIDES AND PEPTIDOMIMETICS FOR p53 REACTIVATION” (New York University, priority 2013, published 2014)

Assays:
[1] = system: UMSCC47 cells; test: ALDH (ALDEFLUOR) and CD44 (FACS) cancer initiating cell markers; type: cell-based, human
Description: Cells were assessed for ALDH activity using the ALDEFLUOR kit according to the manufacturer's protocol (Stem Cell Technologies, British Columbia, Canada). Cells were suspended in ALDEFLUOR assay buffer containing ALDH substrate (bidipy-aminoacetaldehyde, 1 μM per 1×10^6 cells) and incubated for 40 minutes at 37° C. For each experiment, a sample of cells was incubated with 50 mM of diethylaminobenzaldehyde (DEAB), a specific ALDH inhibitor, to serve as the negative control. For CD44 expression, cells were harvested and resuspened in incubation buffer with PE-CD44 antibody (Abcam) or mouse PE-IgG (Abcam) for 50 minutes on ice. Suspensions were centrifuged at 300×g for 5 minutes at 4° C. and resuspend in 0.5 mL of 1% paraformaldehyde solution for analysis. Fluorescence activated cell sorting (FACS) analyses were performed using BD FACS Calibur at The Ohio State University Comprehensive Cancer Center Analytical Cytometry Core.

[2] = system: UMSCC74A cells; test: Cell proliferation (MTT); type: cell-based, human; settings: overexpression of CH1, UMSCC74A cells
Description: Cell proliferation was assessed using the MTT reagent (Roche Molecular Biochemicals, Nutley, N.J.) to detect metabolic active cells. Absorbance was measured at 570 nm in the Spectra Max 190 ELISA reader (Molecular Devices, Sunnyvale, Calif.) after overnight incubation. For clonogenic survival, 200 cells per well were plated in complete growth media and allowed to grow until visible colonies were formed (14 days). Cell colonies were fixed with cold methanol, stained with 0.25% crystal violet in 25% methanol, washed, and air dried. For apoptosis, cells were harvested, washed with cold PBS, and co-stained with Annexin V and propidium iodide according to the manufacturer's protocol (ApoAlert Annexin V-FITC Apoptosis Kit; Clontech). Apoptotic cells were analyzed using BD FACS Calibur (BD Biosciences Corporation, Franklin Lakes, N.J.) at The Ohio State University Comprehensive Cancer Center Analytical Cytometry Core.

[3] = system: UMSCC47 cells; test: Tumor incidence and growth in athymic nude mice; type: in vivo
Description: After 3 weeks, tumors were measured once a week using a digital caliper and tumor volumes were calculated using the formula d1×d2×d3×0.5236, where “d” represents the three orthogonal diameters. Tumor growth and incidence were monitored for 49 days following tumor cell implantation.

[4] = CH1 overexpression, UMSCC47 cells

Substance: CH1: CH1 domain of p300 ectopically expressed from pcDNA3.1/CH1 in stably transfected HNSCC cells
- ALDH^high population, reduced by [1, 4]: 46%
- CD44^high population, reduced by [1, 4]: 31%
- CD44 levels (FACS), reduced by ([1]; UMSCC47/CH1 vs UMSCC47/empty cells): 33%
- cell proliferation, inhibited by [2]: 48%
- tumor incidence ([3]; 3×10^4 UMSCC47/CH1 cells implanted (UMSCC47/empty 50%)): 0%
- mean tumor volume ([3]; 3×10^5 UMSCC47/CH1 cells implanted (UMSCC47/empty 142 mm^3)): 67 mm^3
- tumor incidence vs UMSCC47/empty ([3]; 3×10^5 cells implanted in flanks, 49 days): the same
